Five compounds from patent EP1142881A1, “POLY(ADP-RIBOSE) POLYMERASE INHIBITORS CONSISTING OF PYRIMIDINE DERIVATIVES” (Meiji Seika Kaisha, Ltd., priority 1999, dated 2000) can be followed below.

For this assay, the target named is T1, PARP (Rattus norvegicus, UniProt P27008).
T1 construct: Nucleus obtained by centrifugation was extracted with 0.4 M NaCl and the resulting soluble fraction was used as a source of PARP enzyme; from tissue; host or cells: Wistar rat forebrain, nuclear 0.4 M NaCl soluble fraction
T1 sequence (P27008 whole entry): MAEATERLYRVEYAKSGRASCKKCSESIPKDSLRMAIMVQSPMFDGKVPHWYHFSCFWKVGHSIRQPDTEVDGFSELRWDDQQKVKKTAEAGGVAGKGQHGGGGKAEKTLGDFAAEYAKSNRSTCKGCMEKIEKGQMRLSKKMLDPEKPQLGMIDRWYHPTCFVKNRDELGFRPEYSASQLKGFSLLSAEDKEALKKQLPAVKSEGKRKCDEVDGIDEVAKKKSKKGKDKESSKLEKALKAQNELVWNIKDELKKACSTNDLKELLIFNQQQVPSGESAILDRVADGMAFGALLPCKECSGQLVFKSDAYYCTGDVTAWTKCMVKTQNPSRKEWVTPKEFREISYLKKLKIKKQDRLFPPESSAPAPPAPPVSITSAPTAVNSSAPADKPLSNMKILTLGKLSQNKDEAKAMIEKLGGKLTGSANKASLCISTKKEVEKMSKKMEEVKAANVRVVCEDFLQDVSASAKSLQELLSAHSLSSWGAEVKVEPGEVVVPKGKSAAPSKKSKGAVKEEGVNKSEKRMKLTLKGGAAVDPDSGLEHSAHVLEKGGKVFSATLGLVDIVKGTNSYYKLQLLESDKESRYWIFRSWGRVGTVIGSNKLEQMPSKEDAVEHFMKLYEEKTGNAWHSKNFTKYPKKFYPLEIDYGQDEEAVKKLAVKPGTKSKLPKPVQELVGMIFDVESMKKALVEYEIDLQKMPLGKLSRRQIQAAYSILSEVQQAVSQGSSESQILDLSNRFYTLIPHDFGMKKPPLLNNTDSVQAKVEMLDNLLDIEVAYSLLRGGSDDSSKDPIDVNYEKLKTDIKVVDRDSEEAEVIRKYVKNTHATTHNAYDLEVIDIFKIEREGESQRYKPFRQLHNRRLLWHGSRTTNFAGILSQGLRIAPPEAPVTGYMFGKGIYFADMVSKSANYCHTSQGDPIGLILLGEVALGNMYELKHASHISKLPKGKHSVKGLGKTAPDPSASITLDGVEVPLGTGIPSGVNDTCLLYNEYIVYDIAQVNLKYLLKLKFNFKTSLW
The assay can be described thus: Measurement of PARP enzyme activity. It is filed as biochemical, Wistar rats. The settings on record: soluble nuclear fraction of Wistar rat forebrain as enzyme source; 250 µM NAD, 32P-NAD; 37°C for 30 minutes; 6 concentrations; read-out: PARP inhibitory activity IC50. As to the method: Test method: The forebrain was collected from Wistar rats and homogenized. Nucleus obtained by centrifugation was extracted with 0.4 M NaCl and the resulting soluble fraction was used as a source of PARP enzyme source. […] Incubation was carried out at 37°C for 30 minutes, and then the reaction was stopped with 20%trichloroacetic acid. The acid-insoluble fraction produced above was adsorbed to a GF/B filter, and the filter was washed several times, and then radioactivity on the filter was measured by using a liquid scintillation counter. The PARP activity was measured by subtracting radioactivity as a blank value of a sample not added with the enzyme source. […]
The term IC50 denotes the concentration that inhibits the measured activity by half. On to `C=C1CSCc2c1nc(C)[nH]c2=O` [Example 20, 2-Methyl-8-methylene-3,5,7,8-tetrahydrothiopyrano[4,3-d]pyrimidin-4-one], for which the IC50 came out at 250 nM.

In the case of `COCC=C1CSCc2c1nc(C)[nH]c2=O` [Example 39, 8-(2-Methoxyethylidene)-2-methyl-3,5,7,8-tetrahydrothiopyrano-[4,3-d]pyrimidin-4-one], the IC50 turned out to be 440 nM.

As to `O=c1[nH]c(-c2ccccc2)nc2c1CSCC2` [Example 4, 2-Phenyl-3,5,7,8-tetrahydrothiopyrano[4,3-d]pyrimidin-4-one], the IC50 was determined as 410 nM.

With `O=c1[nH]cnc2c1CSCC2` [Example 3, 3,5,7,8-Tetrahydrothiopyrano[4,3-d]pyrimidin-4-one], the IC50 came out at 1460 nM.

In the case of `C=C1CCCc2c1nc(C)[nH]c2=O` [Example 21(A), 2-Methyl-8-methylene-5,6,7,8-tetrahydro-3H-quinazolin-4-one], the half-maximal inhibitory concentration (IC50) stood at 350 nM.
